How the values were obtained:
Format in all cases: biochemical
[1] = target: T1, thrombin (from human plasma) (Homo sapiens, UniProt P00734); assay: Selectivity: thrombin inhibition, substrate Biophen CS-21(66); conditions: 15 min preincubation; Tris buffer pH 8.3; 580 μM substrate
T1 construct: thrombin (from human plasma, Sigma); purchased Sigma; host or cells: human plasma
Protocol: (§1) The substrate and human enzyme were obtained from Nodia. The reaction was monitored at 405 nm, and the initial rate was determined between 0 and 0.25 absorbance units in 20 min. […] A 50 mM Tris buffer, pH 8.8, was used. From each inhibitor concentration, 5 μL was added, obtaining a final concentration from 0 to 250 μM in a total volume of 0.2 mL. Activity measurements were routinely performed in duplicate. […] IC50 values were obtained by fitting the data with the four-parameter logistics equation using Grafit 5.
(§2) The IC50 values for plasmin (from human plasma, Sigma), tPA (recombinant, Nodia), thrombin (from human plasma, Sigma), and FXa were determined in the same way as for uPA.
(§3) For tPA and thrombin, Tris buffer, pH 8.3, was used, for FXa, Tris buffer, pH 8.3, for plasmin, Tris buffer, pH 7.4, was used.

[2] = target: T2, plasmin (from human plasma) (Homo sapiens, UniProt P00747); assay: Selectivity: plasmin inhibition, substrate Biophen CS-21(66); conditions: 15 min preincubation; Tris buffer pH 7.4; 580 μM substrate
T2 construct: purchased Sigma; host or cells: human plasma
Protocol: as §1, §2, §3

uPA [3] = target: T3, uPA (Homo sapiens, UniProt P00749); assay: uPA inactivation kinetics from progress curves (kobs versus inhibitor concentration, kapp); conditions: 250 μM substrate, 37° C.
T3 construct: purchased Nodia
Protocol: (§4) Inhibitor stock solutions were prepared in DMSO and stored at −20° C. Because the compounds described in this paper completely inactivate uPA following pseudofirst-order kinetics, the IC50 value is inversely correlated with the second-order rate constant of inactivation. For a simple pseudofirst-order inactivation process, the activity after incubation with inhibitor (vi) varies with the inhibitor concentration (i), as described in the following equation: […]
where vo is the activity in absence of inhibitor, k is the second-order rate constant of inactivation, and t is the time. The inactivation rate constant was determined from the time course of inhibition.
The inhibitor was mixed with the substrate (250 μM final concentration), and the buffer solution with the enzyme was added at the time zero. The inhibitor concentrations were chosen to obtain total inhibition of the enzyme within 20 min. The progress curves show the absorbance of p-nitroanilide produced as a function of time. Initially, no inhibitor is bound to the enzyme, and the tangent to the progress curve (dA/dt) is proportional to the concentration of the free enzyme. The concentration of free enzyme decreases over time due to the kinetics of inhibitor binding, as described above. Progress curves were recorded in pseudofirst-order conditions ([I]0>>[E]0) and with less than 10% conversion of the substrate during the entire time course. In these conditions, dA/dt decreases exponentially with time. The progress curves were fitted with the integrated rate equation to yield a value for kobs, a pseudofirst-order rate constant
At=v0[1−e^−k^obs^t]/kobs+A0
where At=absorbance at time t, A0=absorbance at time zero, and v0=uninhibited initial rate.
The apparent second-order rate constant (kapp) was calculated from the slope of the linear part of the plot of kobs versus the inhibitor concentration ([I]0). In case of competition between the inhibitor and the substrate, kapp is smaller than the “real” second order rate constant k discussed above because a certain fraction of the enzyme is present as an enzyme-substrate complex. kapp depends on the substrate concentration used in the experiment, as described by Lambeir et al.^40 For most final compounds, the kobs versus [I]0 plot was not linear, but could be fitted with a hyperbolic function: kobs=k2[I]0/(K1+[I]0) (two step mechanism). Where K1 is the dissociation constant of the reversible enzyme-inhibitor complex and k2 is the first-order rate constant associated with irreversible modification of the enzyme. A kapp could be calculated as k2/K1.

tPA (recombinant) = target: T4, tPA (recombinant) (Homo sapiens, UniProt P00750); assay: Selectivity: tPA inhibition, substrate Biophen CS-05(88); conditions: 15 min preincubation; Tris buffer pH 8.3; 1.25 mM substrate
T4 construct: purchased Nodia
Protocol: as §1, §2, §3

FXa = FXa (Homo sapiens, UniProt P00742); assay: Selectivity: FXa inhibition, substrate Biophen CS-11(32); conditions: for FXa % (I) @ 250: at 250 (μM); for IC50: 15 min preincubation, Tris buffer pH 8.3, 522 μM substrate
uPA [4] = target: T3, uPA; assay: uPA inhibition: in vitro evaluation, IC50 with chromogenic substrate Biophen CS-61(44); conditions: 15 min preincubation at 37° C.; Tris buffer pH 8.8; 250 μM substrate
Protocol: Enzymatic activity was measured at 37° C. in a Spectramax 340 (Molecular Devices) microtiter plate reader using the chromogenic substrate Biophen CS-61(44) (LpyroGlu-Gly L-Arg-p-NA.HCl), with a Km of 80 μM.
The substrate and human enzyme were obtained from Nodia. The reaction was monitored at 405 nm, and the initial rate was determined between 0 and 0.25 absorbance units in 20 min. The reaction mixture contained 250 μM substrate and approximately 1 mU of enzyme in 145 μL of buffer in a final volume of 200 μL. A 50 mM Tris buffer, pH 8.8, was used. From each inhibitor concentration, 5 μL was added, obtaining a final concentration from 0 to 250 μM in a total volume of 0.2 mL. Activity measurements were routinely performed in duplicate. […] IC50 values were obtained by fitting the data with the four-parameter logistics equation using Grafit 5.
where s=slope factor, v=rate, I0=inhibitor concentration, and range=the fitted uninhibited value minus the background. The equation assumes the y falls with increasing x.
as §4

[5] = asterisked: compound showed a two-step mechanism, kapp calculated as k2/K1

T4 sequence (P00750 36-562, species assumed): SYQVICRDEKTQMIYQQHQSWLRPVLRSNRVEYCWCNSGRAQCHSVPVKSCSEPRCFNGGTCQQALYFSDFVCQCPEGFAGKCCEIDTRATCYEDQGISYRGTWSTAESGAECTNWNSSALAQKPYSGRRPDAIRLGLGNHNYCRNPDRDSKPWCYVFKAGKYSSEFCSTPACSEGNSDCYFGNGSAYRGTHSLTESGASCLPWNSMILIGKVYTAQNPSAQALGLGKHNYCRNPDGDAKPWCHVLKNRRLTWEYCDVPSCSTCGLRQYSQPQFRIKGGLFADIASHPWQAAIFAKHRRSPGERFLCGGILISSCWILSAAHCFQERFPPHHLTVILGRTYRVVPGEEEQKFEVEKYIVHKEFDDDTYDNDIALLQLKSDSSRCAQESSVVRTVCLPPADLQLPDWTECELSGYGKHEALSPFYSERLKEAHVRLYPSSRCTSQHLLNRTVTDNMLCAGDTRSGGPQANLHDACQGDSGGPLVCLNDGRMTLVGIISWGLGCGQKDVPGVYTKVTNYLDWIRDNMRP
Chain of FXa (P00742 235-488 limits assumed): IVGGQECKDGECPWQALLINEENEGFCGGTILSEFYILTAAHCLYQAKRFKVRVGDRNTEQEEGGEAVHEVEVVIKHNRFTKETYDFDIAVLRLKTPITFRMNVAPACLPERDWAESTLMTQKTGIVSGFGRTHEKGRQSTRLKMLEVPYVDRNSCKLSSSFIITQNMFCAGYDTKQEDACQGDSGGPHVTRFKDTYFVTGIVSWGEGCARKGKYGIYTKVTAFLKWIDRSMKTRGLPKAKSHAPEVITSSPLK
Chain of FXa (P00742 41-179 partner limits assumed): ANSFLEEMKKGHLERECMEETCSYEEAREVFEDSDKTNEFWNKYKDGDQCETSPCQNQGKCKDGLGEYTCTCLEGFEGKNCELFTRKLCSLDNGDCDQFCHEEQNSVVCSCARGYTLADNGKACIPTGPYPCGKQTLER
T2 sequence (P00747 581-810 limits assumed): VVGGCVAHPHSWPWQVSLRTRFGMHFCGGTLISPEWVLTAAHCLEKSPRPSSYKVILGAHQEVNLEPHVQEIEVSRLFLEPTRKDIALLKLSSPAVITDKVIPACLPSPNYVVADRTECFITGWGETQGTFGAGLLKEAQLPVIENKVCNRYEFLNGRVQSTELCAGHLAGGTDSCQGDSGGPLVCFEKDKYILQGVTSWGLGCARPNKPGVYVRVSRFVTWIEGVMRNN
T2 sequence (P00747 97-580 partner limits assumed): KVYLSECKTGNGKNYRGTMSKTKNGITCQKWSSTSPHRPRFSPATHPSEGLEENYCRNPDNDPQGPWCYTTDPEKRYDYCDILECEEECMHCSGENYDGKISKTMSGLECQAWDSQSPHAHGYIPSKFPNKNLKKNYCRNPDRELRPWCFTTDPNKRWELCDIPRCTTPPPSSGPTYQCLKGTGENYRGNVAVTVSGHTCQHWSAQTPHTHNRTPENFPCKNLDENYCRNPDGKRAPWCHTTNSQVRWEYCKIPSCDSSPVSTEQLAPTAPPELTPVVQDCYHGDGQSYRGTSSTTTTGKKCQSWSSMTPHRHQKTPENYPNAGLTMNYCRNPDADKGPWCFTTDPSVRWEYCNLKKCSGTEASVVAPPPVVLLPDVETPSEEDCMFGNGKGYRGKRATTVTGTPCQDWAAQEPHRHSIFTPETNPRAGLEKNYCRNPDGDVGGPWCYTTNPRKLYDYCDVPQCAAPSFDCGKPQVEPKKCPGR

Compound | IC50 [1] [µM] | IC50 [2] [µM] | uPA: kapp (uPA [3]; [5]) | IC50 (tPA (recombinant)) [µM] | FXa % (I) @ 250 (FXa) | IC50 (uPA [4]) [µM] | uPA: kapp (uPA [3]; apparent second-order rate constant from slope of kobs versus [I]0, no asterisk) [M⁻¹ s⁻¹] | IC50 (FXa) [µM]
CCN(CC)c1ccc2c(-c3ccccc3C(=O)N3CCN(C(=O)CCCCCCCn4cc(CCCOC(=O)NC(Cc5ccc(NC(=N)N)cc5)P(=O)(Oc5ccc(NC(C)=O)cc5)Oc5ccc(NC(C)=O)cc5)nn4)CC3)c3ccc(=[N+](CC)CC)cc-3oc2c1.O=C(O)C(F)(F)F.[Cl-] (stereo not drawn) [Final compound 5, 2,2,2-trifluoroacetic acid, N-(9-(2-(4-(8-(4-(3-(((1-(bis(4-acetamidophenoxy)phosphoryl)-2-(4-guanidinophenyl)ethyl)carbamoyl)oxy)propyl)-1H-1,2,3-triazol-1-yl)octanoyl)piperazine-1-carbonyl)phenyl)-6-(diethylamino)-3H-xanthen-3-ylidene)-N-ethylethanaminium chloride] | 5.2 ± 0.2 | 5.6 ± 1.5 | 52 × 10^2 ± 1 × 10^2 * M^−1 s^−1 | > 62 | 90% @ 250 | 0.022 ± 0.002 | – | –
C#CCOCCOCCOCCOC(=O)NC(Cc1ccc(NC(=N)N)cc1)P(=O)(Oc1ccccc1)Oc1ccccc1.O=C(O)C(F)(F)F (stereo not drawn) [Intermediate 57, 2-(2-(2-(prop-2-ynyloxy)ethoxy)ethoxy)ethyl 1-(diphenoxyphosphoryl)-2-(4-guanidinophenyl)ethylcarbamate 2,2,2-trifluoroacetate] | 21 ± 5 | 9 ± 2 | 11 × 10^3 ± 4 × 10^3 * M^−1 s^−1 | 67 ± 7 | 54% @ 250 | 0.011 ± 0.001 | – | –
CCN(CC)c1ccc2c(-c3ccccc3C(=O)N3CCN(C(=O)CCCCCCCn4cc(COCCOCCOC(=O)NC(Cc5ccc(NC(=N)N)cc5)P(=O)(Oc5ccccc5)Oc5ccccc5)nn4)CC3)c3ccc(=[N+](CC)CC)cc-3oc2c1 (stereo not drawn) [Final compound 2, 2,2,2-trifluoroacetic acid, N-(6-(diethylamino)-9-(2-(4-(8-(4-(11-(diphenoxyphosphoryl)-12-(4-guanidinophenyl)-9-oxo-2,5,8-trioxa-10-azadodecyl)-1H-1,2,3-triazol-1-yl)octanoyl)piperazine-1-carbonyl)phenyl)-3H-xanthen-3-ylidene)-N-ethylethanaminium chloride] | 24 ± 21 | 5.4 ± 1.6 | – | 33 ± 13 | – | 0.019 ± 0.003 | 1300 ± 70 | 176 ± 128
C#CCOCCOC(=O)NC(Cc1ccc(NC(=N)N)cc1)P(=O)(Oc1ccccc1)Oc1ccccc1.O=C(O)C(F)(F)F (stereo not drawn) [Intermediate 55, 2-(prop-2-ynyloxy)ethyl 1-(diphenoxyphosphoryl)-2-(4-guanidinophenyl)ethyl carbamate 2,2,2-trifluoroacetate] | 33 ± 4 | 11 ± 1 | 19 × 10^3 ± 4 × 10^3 * M^−1 s^−1 | 66 ± 13 | 50% @ 250 | 0.0088 ± 0.0008 | – | –
Cl.N=C(N)Nc1ccc(CC(NC(=O)OCCCc2cn(CCOCCOCCOCCNC(=O)c3ccc(F)cc3)nn2)P(=O)(Oc2ccccc2)Oc2ccccc2)cc1 (stereo not drawn) [Final compound 8, 3-(1-(1-(4-fluorophenyl)-1-oxo-5,8,11-trioxa-2-azamidecan-13-yl)-1H-1,2,3-triazol-4-yl)propyl (1-(diphenoxyphosphoryl)-2-(4-guanidinophenyl)ethyl)carbamate hydrochloride] | 13.2 ± 0.6 | 5.9 ± 0.8 | 68 × 10^2 ± 25 × 10^2 * M^−1 s^−1 | 46 ± 5 | – | 0.019 ± 0.002 | – | ~62
N=C(N)Nc1ccc(CC(NC(=O)OCCCc2cn(CCOCCOCCOCCNC(=O)CCCC[C@@H]3SC[C@@H]4NC(=O)N[C@@H]43)nn2)P(=O)(Oc2ccccc2)Oc2ccccc2)cc1.O=C(O)C(F)(F)F (stereo partly drawn) [Final compound 7, 3-(1-(13-oxo-17-((3aS,4S,6aR)-2-oxohexahydro-1H-thieno[3,4-d]imidazol-4-yl)-3,6,9-trioxa-12-azaheptadecyl)-1H-1,2,3-triazol-4-yl)propyl (1-(diphenoxyphosphoryl)-2-(4-guanidinophenyl)ethyl)carbamate 2,2,2-trifluoroacetate] | 14.1 ± 0.3 | 4.7 ± 0.1 | 86 × 10^2 ± 10 × 10^2 * M^−1 s^−1 | 58 ± 6 | 73% I @ 250 ^ | 0.0156 ± 0.001 | – | –
